Assays:
Details in all cases: Compound concentration 10 µM
[1] = molecular target: T1, Alpha-2B adrenergic receptor (Homo sapiens) (UniProt P18089)
T1 sequence (whole entry): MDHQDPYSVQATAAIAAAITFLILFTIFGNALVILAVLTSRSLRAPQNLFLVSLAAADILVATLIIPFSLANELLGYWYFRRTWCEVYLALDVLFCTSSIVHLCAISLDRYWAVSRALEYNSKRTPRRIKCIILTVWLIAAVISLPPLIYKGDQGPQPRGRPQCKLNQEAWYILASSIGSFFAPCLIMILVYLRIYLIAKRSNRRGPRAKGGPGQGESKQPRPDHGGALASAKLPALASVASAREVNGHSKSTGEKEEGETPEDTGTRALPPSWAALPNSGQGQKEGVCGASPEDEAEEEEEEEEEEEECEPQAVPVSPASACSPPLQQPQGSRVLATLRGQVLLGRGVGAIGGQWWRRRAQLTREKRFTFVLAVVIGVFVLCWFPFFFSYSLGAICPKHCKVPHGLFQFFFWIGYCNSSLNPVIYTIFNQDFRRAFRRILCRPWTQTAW

[2] = molecular target: T2, Alpha-2C adrenergic receptor (Homo sapiens) (UniProt P18825)
T2 sequence (whole entry): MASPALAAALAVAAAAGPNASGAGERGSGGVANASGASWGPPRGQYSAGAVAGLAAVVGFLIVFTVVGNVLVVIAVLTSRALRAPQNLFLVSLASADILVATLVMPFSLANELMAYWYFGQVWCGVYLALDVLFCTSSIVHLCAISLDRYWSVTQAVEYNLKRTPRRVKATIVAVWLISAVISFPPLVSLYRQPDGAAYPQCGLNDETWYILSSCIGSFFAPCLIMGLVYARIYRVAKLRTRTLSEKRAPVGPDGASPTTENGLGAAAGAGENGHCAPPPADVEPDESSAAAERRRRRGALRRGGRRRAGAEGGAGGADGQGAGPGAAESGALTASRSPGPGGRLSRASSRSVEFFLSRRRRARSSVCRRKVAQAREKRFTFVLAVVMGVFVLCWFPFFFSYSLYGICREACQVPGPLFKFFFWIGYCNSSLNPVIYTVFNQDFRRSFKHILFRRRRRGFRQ

[3] = molecular target: T3, Muscarinic acetylcholine receptor M4 (Homo sapiens) (UniProt P08173)
T3 sequence (whole entry): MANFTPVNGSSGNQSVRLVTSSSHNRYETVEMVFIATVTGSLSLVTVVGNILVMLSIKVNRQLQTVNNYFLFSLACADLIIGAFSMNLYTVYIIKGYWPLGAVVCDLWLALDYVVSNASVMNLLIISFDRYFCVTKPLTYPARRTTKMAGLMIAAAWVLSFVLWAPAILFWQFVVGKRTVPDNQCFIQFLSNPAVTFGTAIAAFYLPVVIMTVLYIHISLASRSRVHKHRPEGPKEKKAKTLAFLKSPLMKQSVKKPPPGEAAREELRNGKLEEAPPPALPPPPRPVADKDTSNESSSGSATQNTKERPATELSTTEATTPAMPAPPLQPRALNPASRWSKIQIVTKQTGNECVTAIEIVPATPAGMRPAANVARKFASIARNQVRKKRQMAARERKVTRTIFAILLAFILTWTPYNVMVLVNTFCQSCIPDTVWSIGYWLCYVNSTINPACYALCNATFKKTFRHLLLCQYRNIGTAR

[4] = molecular target: D(2) dopamine receptor (Homo sapiens) (UniProt P14416)
[5] = molecular target: Histamine H3 receptor (Homo sapiens) (UniProt Q9Y5N1)
[6] = molecular target: Histamine H4 receptor (Homo sapiens) (UniProt Q9H3N8)
[7] = molecular target: 5-hydroxytryptamine receptor 1B (Homo sapiens) (UniProt P28222)
[8] = molecular target: T4, 5-hydroxytryptamine receptor 2C (Homo sapiens) (UniProt P28335)
T4 sequence (whole entry): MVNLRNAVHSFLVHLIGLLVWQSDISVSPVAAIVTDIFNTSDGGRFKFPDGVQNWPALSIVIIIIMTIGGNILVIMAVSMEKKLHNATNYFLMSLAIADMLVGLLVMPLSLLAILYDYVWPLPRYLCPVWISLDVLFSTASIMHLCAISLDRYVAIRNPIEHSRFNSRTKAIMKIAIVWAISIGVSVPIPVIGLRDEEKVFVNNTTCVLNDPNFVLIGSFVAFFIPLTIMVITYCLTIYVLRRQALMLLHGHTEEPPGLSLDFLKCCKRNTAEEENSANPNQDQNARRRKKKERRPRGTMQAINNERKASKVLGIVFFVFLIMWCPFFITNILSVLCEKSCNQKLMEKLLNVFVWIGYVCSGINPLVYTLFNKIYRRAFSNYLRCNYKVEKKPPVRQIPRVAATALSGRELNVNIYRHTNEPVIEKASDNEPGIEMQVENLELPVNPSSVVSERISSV

[9] = molecular target: 5-hydroxytryptamine receptor 7 (Homo sapiens) (UniProt P34969)
[10] = molecular target: Sodium-dependent noradrenaline transporter (Homo sapiens) (UniProt P23975)
[11] = molecular target: Sodium-dependent serotonin transporter (Homo sapiens) (UniProt P31645)
[12] = molecular target: T5, D(4) dopamine receptor (Homo sapiens) (UniProt P21917)
T5 sequence (whole entry): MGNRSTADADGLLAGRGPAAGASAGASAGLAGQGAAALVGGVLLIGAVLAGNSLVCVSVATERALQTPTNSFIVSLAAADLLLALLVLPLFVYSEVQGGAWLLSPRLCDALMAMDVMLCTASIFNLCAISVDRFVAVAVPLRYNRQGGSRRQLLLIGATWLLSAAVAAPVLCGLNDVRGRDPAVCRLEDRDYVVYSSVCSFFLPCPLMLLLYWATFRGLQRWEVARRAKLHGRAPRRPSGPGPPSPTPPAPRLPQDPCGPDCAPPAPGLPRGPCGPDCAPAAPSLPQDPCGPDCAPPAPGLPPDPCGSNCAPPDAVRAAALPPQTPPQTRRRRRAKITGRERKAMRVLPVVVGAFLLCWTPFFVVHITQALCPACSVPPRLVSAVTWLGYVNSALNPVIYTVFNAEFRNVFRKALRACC

[13] = molecular target: Sigma non-opioid intracellular receptor 1 (Homo sapiens) (UniProt Q99720)
[14] = molecular target: Sodium-dependent dopamine transporter (Homo sapiens) (UniProt Q01959)
Chain of Sodium-dependent dopamine transporter (Homo sapiens) (Q01959 whole entry): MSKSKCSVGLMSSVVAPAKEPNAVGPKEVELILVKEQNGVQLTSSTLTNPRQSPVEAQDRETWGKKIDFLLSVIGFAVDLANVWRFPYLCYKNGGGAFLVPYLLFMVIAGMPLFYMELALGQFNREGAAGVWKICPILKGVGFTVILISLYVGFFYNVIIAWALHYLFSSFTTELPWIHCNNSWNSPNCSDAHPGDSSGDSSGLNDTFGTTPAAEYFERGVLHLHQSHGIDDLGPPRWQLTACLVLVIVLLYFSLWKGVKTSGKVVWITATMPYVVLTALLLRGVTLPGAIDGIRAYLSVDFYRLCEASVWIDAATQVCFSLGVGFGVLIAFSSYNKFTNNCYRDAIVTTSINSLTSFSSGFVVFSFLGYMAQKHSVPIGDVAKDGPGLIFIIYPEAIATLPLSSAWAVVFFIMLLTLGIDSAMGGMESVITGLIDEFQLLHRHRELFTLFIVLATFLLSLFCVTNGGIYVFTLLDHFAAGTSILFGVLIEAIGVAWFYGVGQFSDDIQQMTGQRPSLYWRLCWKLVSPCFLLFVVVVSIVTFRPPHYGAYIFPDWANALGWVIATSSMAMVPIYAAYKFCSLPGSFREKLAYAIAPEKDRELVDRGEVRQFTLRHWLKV

Chain of Histamine H3 receptor (Homo sapiens) (Q9Y5N1 whole entry): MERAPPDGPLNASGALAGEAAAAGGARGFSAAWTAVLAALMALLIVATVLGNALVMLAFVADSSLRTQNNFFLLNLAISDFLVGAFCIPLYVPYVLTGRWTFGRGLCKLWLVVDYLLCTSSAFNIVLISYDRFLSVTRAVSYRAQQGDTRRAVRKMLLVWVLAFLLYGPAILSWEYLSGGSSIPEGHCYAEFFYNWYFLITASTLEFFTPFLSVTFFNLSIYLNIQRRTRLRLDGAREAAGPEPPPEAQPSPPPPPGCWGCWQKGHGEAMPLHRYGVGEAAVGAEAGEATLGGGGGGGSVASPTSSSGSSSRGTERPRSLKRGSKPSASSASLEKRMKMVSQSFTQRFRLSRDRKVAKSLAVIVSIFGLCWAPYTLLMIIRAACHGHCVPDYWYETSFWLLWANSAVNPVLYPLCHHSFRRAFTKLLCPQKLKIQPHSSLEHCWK
Chain of 5-hydroxytryptamine receptor 7 (Homo sapiens) (P34969 whole entry): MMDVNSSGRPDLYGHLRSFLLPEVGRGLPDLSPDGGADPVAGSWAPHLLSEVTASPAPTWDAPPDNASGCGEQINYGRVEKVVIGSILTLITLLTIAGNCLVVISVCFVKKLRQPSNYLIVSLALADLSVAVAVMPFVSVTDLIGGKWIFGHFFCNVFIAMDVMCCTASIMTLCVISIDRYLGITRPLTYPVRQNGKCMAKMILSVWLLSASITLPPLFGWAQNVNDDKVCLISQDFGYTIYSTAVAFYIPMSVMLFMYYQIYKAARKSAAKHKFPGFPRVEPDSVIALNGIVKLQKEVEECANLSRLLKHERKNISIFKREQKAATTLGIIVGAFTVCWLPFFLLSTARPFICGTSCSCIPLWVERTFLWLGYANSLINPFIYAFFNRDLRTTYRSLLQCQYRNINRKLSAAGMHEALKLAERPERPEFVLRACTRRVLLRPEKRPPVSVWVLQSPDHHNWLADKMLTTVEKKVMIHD
Chain of D(2) dopamine receptor (Homo sapiens) (P14416 whole entry): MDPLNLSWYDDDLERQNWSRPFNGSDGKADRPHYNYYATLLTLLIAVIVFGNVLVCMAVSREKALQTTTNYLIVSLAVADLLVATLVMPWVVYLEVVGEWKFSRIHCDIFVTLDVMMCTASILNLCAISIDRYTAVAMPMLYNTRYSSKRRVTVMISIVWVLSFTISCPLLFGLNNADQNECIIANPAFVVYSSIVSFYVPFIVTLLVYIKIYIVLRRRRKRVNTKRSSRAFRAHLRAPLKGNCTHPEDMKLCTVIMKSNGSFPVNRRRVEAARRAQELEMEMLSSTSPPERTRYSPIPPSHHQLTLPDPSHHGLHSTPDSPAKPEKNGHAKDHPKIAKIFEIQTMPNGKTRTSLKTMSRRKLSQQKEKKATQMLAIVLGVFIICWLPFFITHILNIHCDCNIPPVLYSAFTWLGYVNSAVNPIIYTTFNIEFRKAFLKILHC
Chain of Sodium-dependent serotonin transporter (Homo sapiens) (P31645 whole entry, looked up): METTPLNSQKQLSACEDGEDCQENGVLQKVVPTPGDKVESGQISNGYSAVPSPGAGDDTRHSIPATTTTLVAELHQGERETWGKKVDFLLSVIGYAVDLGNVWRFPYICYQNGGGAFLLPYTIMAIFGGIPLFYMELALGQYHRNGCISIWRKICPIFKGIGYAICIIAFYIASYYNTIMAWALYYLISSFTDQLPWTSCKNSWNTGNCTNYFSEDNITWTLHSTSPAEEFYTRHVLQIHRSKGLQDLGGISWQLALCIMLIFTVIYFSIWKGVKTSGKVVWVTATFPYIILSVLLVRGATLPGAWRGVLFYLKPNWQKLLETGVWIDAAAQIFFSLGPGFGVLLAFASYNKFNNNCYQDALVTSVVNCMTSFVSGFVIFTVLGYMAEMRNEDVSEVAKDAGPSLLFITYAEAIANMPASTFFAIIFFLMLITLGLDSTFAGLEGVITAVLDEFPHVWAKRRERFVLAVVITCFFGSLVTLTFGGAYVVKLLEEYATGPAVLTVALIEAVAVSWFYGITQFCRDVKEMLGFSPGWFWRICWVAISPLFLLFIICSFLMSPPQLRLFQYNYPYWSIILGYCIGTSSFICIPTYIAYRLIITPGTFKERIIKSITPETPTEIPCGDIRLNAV
Chain of Sodium-dependent noradrenaline transporter (Homo sapiens) (P23975 whole entry): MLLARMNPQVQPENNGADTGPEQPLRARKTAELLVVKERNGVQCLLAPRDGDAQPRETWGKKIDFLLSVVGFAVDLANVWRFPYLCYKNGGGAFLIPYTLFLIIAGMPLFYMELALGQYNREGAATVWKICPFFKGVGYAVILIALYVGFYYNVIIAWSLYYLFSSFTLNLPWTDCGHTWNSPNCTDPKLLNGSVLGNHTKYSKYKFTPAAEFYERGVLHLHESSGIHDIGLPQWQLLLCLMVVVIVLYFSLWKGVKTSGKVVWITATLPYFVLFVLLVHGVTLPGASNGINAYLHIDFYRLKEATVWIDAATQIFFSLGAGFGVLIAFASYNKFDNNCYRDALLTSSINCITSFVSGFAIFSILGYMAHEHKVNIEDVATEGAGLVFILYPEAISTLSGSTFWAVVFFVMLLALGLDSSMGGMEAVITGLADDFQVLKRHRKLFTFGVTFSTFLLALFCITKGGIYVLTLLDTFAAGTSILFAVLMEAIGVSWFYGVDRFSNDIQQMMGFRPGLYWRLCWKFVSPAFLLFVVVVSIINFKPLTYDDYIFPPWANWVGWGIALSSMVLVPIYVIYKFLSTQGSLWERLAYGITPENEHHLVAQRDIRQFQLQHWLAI
Chain of Histamine H4 receptor (Homo sapiens) (Q9H3N8 whole entry): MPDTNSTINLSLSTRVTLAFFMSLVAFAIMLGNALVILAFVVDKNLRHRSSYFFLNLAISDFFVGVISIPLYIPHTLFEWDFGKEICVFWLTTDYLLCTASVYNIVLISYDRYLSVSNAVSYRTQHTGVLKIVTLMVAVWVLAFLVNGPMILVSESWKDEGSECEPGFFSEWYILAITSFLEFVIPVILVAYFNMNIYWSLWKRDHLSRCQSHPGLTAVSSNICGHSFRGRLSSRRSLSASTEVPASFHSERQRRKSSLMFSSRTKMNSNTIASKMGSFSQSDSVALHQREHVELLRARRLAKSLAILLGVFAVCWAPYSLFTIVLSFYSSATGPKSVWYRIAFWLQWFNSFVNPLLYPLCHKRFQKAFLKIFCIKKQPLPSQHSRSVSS
Chain of Sigma non-opioid intracellular receptor 1 (Homo sapiens) (Q99720 whole entry): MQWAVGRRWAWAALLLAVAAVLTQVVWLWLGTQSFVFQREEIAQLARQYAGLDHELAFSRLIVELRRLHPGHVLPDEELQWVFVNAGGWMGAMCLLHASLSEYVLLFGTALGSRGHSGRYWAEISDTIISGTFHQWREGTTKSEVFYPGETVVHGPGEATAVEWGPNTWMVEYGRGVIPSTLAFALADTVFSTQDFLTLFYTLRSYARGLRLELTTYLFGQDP
Chain of 5-hydroxytryptamine receptor 1B (Homo sapiens) (P28222 whole entry): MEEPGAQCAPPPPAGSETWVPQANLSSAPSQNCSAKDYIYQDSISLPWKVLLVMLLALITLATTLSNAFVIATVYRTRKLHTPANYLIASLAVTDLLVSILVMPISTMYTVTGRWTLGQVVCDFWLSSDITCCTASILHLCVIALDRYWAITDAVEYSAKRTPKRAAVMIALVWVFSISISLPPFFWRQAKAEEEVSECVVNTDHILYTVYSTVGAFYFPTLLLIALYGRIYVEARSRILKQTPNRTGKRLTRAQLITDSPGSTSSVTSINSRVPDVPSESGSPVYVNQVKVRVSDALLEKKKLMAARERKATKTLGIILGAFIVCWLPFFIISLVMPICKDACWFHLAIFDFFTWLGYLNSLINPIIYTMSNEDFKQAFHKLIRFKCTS

SMILES | inhibition [1] | inhibition [2] | inhibition [3] | inhibition [4] | inhibition [5] | inhibition [6] | inhibition [7] | inhibition [8] | inhibition [9] | inhibition [10] | inhibition [11] | inhibition [12] | inhibition [13] | inhibition [14]
CNC[C@H](O)c1cccc(O)c1 | 21.3% | 32.8% | 6.21% | -2.53% | 13.1% | 19.6% | 15.9% | 16.3% | 75.5% | 8.86% | 3.06% | – | – | –
CCCCN1CCC(COC(=O)c2cc(Cl)c(N)c3c2OCCO3)CC1 | 33.3% | 78.8% | 5.81% | 43.7% | 32.8% | -1.37% | 35.3% | 58.2% | 40% | 42.9% | 14.6% | 24.9% | 105% | 19.5%
Cc1nc2sccn2c(=O)c1CCN1CCC(=C(c2ccc(F)cc2)c2ccc(F)cc2)CC1 | 84% | 94.9% | 1.18% | 95.4% | 30.7% | 59% | 96% | 97.8% | 90.2% | 53.7% | 80.8% | 82.1% | 87.3% | 68.9%
Cc1nc(-c2ccc(-c3ccc(C(=O)N4CCc5cc6c(cc54)C4(CCN(C)CC4)CO6)cc3)c(C)c2)no1 | 69.5% | 38% | 23% | 29% | 35.6% | 20.5% | 95.1% | 85.3% | 25.5% | 69.2% | 41% | 16.6% | 75.2% | 70.2%
N#Cc1ccc2[nH]cc(CCCCN3CCN(c4ccc5oc(C(N)=O)cc5c4)CC3)c2c1 | 47.1% | 76.3% | 5.32% | 79.4% | 31.9% | 24.6% | 56.1% | 43.3% | 82.4% | 98.1% | 96% | 80.5% | 99.1% | 99.5%
S=C(NCCCc1c[nH]cn1)NCCCN(Cc1ccc(Cl)c(Cl)c1)c1ccc(Br)cn1 | 94.8% | 101% | – | 17.1% | 100% | 99.3% | 93.3% | 100% | 74.9% | 94.1% | 95% | 40.9% | 1.54% | 94.8%
CN1C(=O)[C@@H](NC(=O)c2cc3ccccc3[nH]2)N=C(c2ccccc2)c2ccccc21 | 34.7% | -0.17% | -8% | 4.63% | 5.34% | -4.47% | 27.2% | 16.1% | 13.6% | 28.5% | -8.05% | -8.65% | – | 42.1%
O=S1(=O)c2cccc3cccc(c23)N1CCCN1CCN(c2ccc(F)cc2)CC1 | 104% | 98.7% | 1.66% | 41.2% | 45.5% | 5.54% | 31.4% | 97.4% | 90.5% | 65.1% | 81.7% | 108% | 89.3% | 75.8%
COC(=O)C1=C(C)NC(C)=C(C(=O)OCCCN2CCC(c3ccccc3)(c3ccccc3)CC2)[C@H]1c1cccc([N+](=O)[O-])c1 | 90% | 94.8% | 24.8% | 79.2% | 62.2% | 27.4% | 89.2% | 58.1% | 84.6% | 86.5% | 85.7% | 41.5% | 53.5% | 89.7%
OC1(c2ccc(Cl)cc2)CCN(Cc2c[nH]c3ccccc23)CC1 | 83.8% | 30.4% | -10% | 90.2% | – | 13.8% | 19.3% | 18.8% | 10.4% | 63.5% | 102% | 66.1% | 2.38% | 80%
NC[C@@H]1O[C@H](C23CC4CC(CC(C4)C2)C3)Cc2c1ccc(O)c2O | 64.3% | 102% | 8.08% | 21.6% | 24.8% | -6.56% | 22.6% | 31.6% | 25.1% | 58.5% | 28.7% | 83.8% | 48.5% | 68.4%
Cc1cccc([C@H](C)c2c[nH]cn2)c1C | 97.8% | 99.1% | – | 14.4% | 2.75% | 11.3% | 31.3% | 14.5% | 68.1% | 50.9% | -4.26% | 26.9% | 1.54% | 39.2%
O=C(c1cc2c(cc1F)OC(c1ccc(F)cc1)(c1ccc(Cl)cc1Cl)O2)N1CCOCC1 (centres undefined) | 28.5% | 38.9% | – | 5.49% | 21% | 32.4% | 27.6% | 73.4% | 5.01% | 52% | 15.9% | 29.6% | 48.5% | 59%

— ChEMBL document CHEMBL5442219
